{
  "source": "the NIST ThermoML archive (doi:10.1016/j.tca.2011.10.030)",
  "experiment": "xn = mol fraction of the nth substance listed",
  "conditions": "101 kPa, Liquid; for viscosity: Capillary tube (Ostwald / Ubbelohde) method; for mass density: Vibrating tube method",
  "note": "Numbers after ± are expanded uncertainties.",
  "data": [
    {"smiles": "CCCCCCn1cc[n+](C)c1.F[B-](F)(F)F", "note": "[1-hexyl-3-methylimidazolium tetrafluoroborate] + CCCO", "values": [
      {"measurement": "viscosity", "setting": "293.15 K, x1 = 0.1006", "result": "3.744 ± 0.034", "unit": "mPa·s"},
      {"measurement": "viscosity", "setting": "293.15 K, x1 = 0.199", "result": "6.294 ± 0.057", "unit": "mPa·s"},
      {"measurement": "viscosity", "setting": "293.15 K, x1 = 0.3002", "result": "10.08 ± 0.09", "unit": "mPa·s"},
      {"measurement": "viscosity", "setting": "293.15 K, x1 = 0.4993", "result": "23.7 ± 0.22", "unit": "mPa·s"},
      {"measurement": "viscosity", "setting": "293.15 K, x1 = 0.6309", "result": "41.96 ± 0.41", "unit": "mPa·s"},
      {"measurement": "viscosity", "setting": "293.15 K, x1 = 0.7571", "result": "73.7 ± 0.92", "unit": "mPa·s"},
      {"measurement": "viscosity", "setting": "293.15 K, x1 = 0.8894", "result": "139.42 ± 3.4", "unit": "mPa·s"},
      {"measurement": "viscosity", "setting": "293.15 K, x1 = 1", "result": "232.65 ± 8.2", "unit": "mPa·s"},
      {"measurement": "mass density", "setting": "293.15 K, x1 = 0.1006", "result": "895.6 ± 5", "unit": "kg/m3"},
      {"measurement": "mass density", "setting": "293.15 K, x1 = 0.199", "result": "955.99 ± 5", "unit": "kg/m3"},
      {"measurement": "mass density", "setting": "293.15 K, x1 = 0.3002", "result": "1001.98 ± 5", "unit": "kg/m3"},
      {"measurement": "mass density", "setting": "293.15 K, x1 = 0.4993", "result": "1065.02 ± 5", "unit": "kg/m3"},
      {"measurement": "mass density", "setting": "293.15 K, x1 = 0.6309", "result": "1094.51 ± 5", "unit": "kg/m3"},
      {"measurement": "mass density", "setting": "293.15 K, x1 = 0.7571", "result": "1116.98 ± 5.1", "unit": "kg/m3"},
      {"measurement": "mass density", "setting": "293.15 K, x1 = 0.8894", "result": "1135.92 ± 5.1", "unit": "kg/m3"},
      {"measurement": "mass density", "setting": "293.15 K, x1 = 1", "result": "1149.24 ± 5.1", "unit": "kg/m3"},
      {"measurement": "viscosity", "setting": "303.15 K, x1 = 0.1006", "result": "2.705 ± 0.025", "unit": "mPa·s"},
      {"measurement": "viscosity", "setting": "303.15 K, x1 = 0.199", "result": "4.518 ± 0.042", "unit": "mPa·s"},
      {"measurement": "viscosity", "setting": "303.15 K, x1 = 0.3002", "result": "7.158 ± 0.066", "unit": "mPa·s"},
      {"measurement": "viscosity", "setting": "303.15 K, x1 = 0.4993", "result": "16.37 ± 0.15", "unit": "mPa·s"},
      {"measurement": "viscosity", "setting": "303.15 K, x1 = 0.6309", "result": "27.85 ± 0.27", "unit": "mPa·s"},
      {"measurement": "viscosity", "setting": "303.15 K, x1 = 0.7571", "result": "46.65 ± 0.48", "unit": "mPa·s"},
      {"measurement": "viscosity", "setting": "303.15 K, x1 = 0.8894", "result": "82.45 ± 1.2", "unit": "mPa·s"},
      {"measurement": "viscosity", "setting": "303.15 K, x1 = 1", "result": "130.02 ± 3", "unit": "mPa·s"},
      {"measurement": "mass density", "setting": "303.15 K, x1 = 0.1006", "result": "887.71 ± 5", "unit": "kg/m3"},
      {"measurement": "mass density", "setting": "303.15 K, x1 = 0.199", "result": "948.28 ± 5", "unit": "kg/m3"},
      {"measurement": "mass density", "setting": "303.15 K, x1 = 0.3002", "result": "994.41 ± 5", "unit": "kg/m3"},
      {"measurement": "mass density", "setting": "303.15 K, x1 = 0.4993", "result": "1057.71 ± 5", "unit": "kg/m3"},
      {"measurement": "mass density", "setting": "303.15 K, x1 = 0.6309", "result": "1087.38 ± 5", "unit": "kg/m3"},
      {"measurement": "mass density", "setting": "303.15 K, x1 = 0.7571", "result": "1110.01 ± 5.1", "unit": "kg/m3"},
      {"measurement": "mass density", "setting": "303.15 K, x1 = 0.8894", "result": "1129.14 ± 5.1", "unit": "kg/m3"},
      {"measurement": "mass density", "setting": "303.15 K, x1 = 1", "result": "1142.48 ± 5.1", "unit": "kg/m3"},
      {"measurement": "viscosity", "setting": "313.15 K, x1 = 0.1004", "result": "1.999 ± 0.019", "unit": "mPa·s"},
      {"measurement": "viscosity", "setting": "313.15 K, x1 = 0.199", "result": "3.364 ± 0.032", "unit": "mPa·s"},
      {"measurement": "viscosity", "setting": "313.15 K, x1 = 0.3002", "result": "5.324 ± 0.051", "unit": "mPa·s"},
      {"measurement": "viscosity", "setting": "313.15 K, x1 = 0.4993", "result": "11.84 ± 0.11", "unit": "mPa·s"},
      {"measurement": "viscosity", "setting": "313.15 K, x1 = 0.6309", "result": "19.44 ± 0.19", "unit": "mPa·s"},
      {"measurement": "viscosity", "setting": "313.15 K, x1 = 0.7571", "result": "31.26 ± 0.32", "unit": "mPa·s"},
      {"measurement": "viscosity", "setting": "313.15 K, x1 = 0.8894", "result": "52.28 ± 0.5", "unit": "mPa·s"},
      {"measurement": "viscosity", "setting": "313.15 K, x1 = 1", "result": "78.24 ± 1.1", "unit": "mPa·s"},
      {"measurement": "mass density", "setting": "313.15 K, x1 = 0.1006", "result": "879.74 ± 5", "unit": "kg/m3"},
      {"measurement": "mass density", "setting": "313.15 K, x1 = 0.199", "result": "940.53 ± 5", "unit": "kg/m3"},
      {"measurement": "mass density", "setting": "313.15 K, x1 = 0.3002", "result": "986.83 ± 5", "unit": "kg/m3"},
      {"measurement": "mass density", "setting": "313.15 K, x1 = 0.4993", "result": "1050.43 ± 5", "unit": "kg/m3"},
      {"measurement": "mass density", "setting": "313.15 K, x1 = 0.6309", "result": "1080.27 ± 5", "unit": "kg/m3"},
      {"measurement": "mass density", "setting": "313.15 K, x1 = 0.7571", "result": "1103.05 ± 5.1", "unit": "kg/m3"},
      {"measurement": "mass density", "setting": "313.15 K, x1 = 0.8894", "result": "1122.32 ± 5.1", "unit": "kg/m3"},
      {"measurement": "mass density", "setting": "313.15 K, x1 = 1", "result": "1135.79 ± 5.1", "unit": "kg/m3"},
      {"measurement": "viscosity", "setting": "323.15 K, x1 = 0.1006", "result": "1.502 ± 0.014", "unit": "mPa·s"},
      {"measurement": "viscosity", "setting": "323.15 K, x1 = 0.199", "result": "2.585 ± 0.025", "unit": "mPa·s"},
      {"measurement": "viscosity", "setting": "323.15 K, x1 = 0.3002", "result": "4.056 ± 0.039", "unit": "mPa·s"},
      {"measurement": "viscosity", "setting": "323.15 K, x1 = 0.4993", "result": "8.808 ± 0.086", "unit": "mPa·s"},
      {"measurement": "viscosity", "setting": "323.15 K, x1 = 0.6309", "result": "14.25 ± 0.14", "unit": "mPa·s"},
      {"measurement": "viscosity", "setting": "323.15 K, x1 = 0.7571", "result": "21.97 ± 0.23", "unit": "mPa·s"},
      {"measurement": "viscosity", "setting": "323.15 K, x1 = 0.8894", "result": "35.15 ± 0.38", "unit": "mPa·s"},
      {"measurement": "viscosity", "setting": "323.15 K, x1 = 1", "result": "50.3 ± 0.51", "unit": "mPa·s"},
      {"measurement": "mass density", "setting": "323.15 K, x1 = 0.1006", "result": "871.67 ± 5", "unit": "kg/m3"},
      {"measurement": "mass density", "setting": "323.15 K, x1 = 0.199", "result": "932.73 ± 5", "unit": "kg/m3"},
      {"measurement": "mass density", "setting": "323.15 K, x1 = 0.3002", "result": "979.23 ± 5", "unit": "kg/m3"},
      {"measurement": "mass density", "setting": "323.15 K, x1 = 0.4993", "result": "1043.18 ± 5", "unit": "kg/m3"},
      {"measurement": "mass density", "setting": "323.15 K, x1 = 0.6309", "result": "1073.19 ± 5", "unit": "kg/m3"},
      {"measurement": "mass density", "setting": "323.15 K, x1 = 0.7571", "result": "1096.1 ± 5", "unit": "kg/m3"},
      {"measurement": "mass density", "setting": "323.15 K, x1 = 0.8894", "result": "1115.51 ± 5.1", "unit": "kg/m3"},
      {"measurement": "mass density", "setting": "323.15 K, x1 = 1", "result": "1129.08 ± 5.1", "unit": "kg/m3"},
      {"measurement": "viscosity", "setting": "333.15 K, x1 = 0.1006", "result": "1.123 ± 0.011", "unit": "mPa·s"},
      {"measurement": "viscosity", "setting": "333.15 K, x1 = 0.199", "result": "1.99 ± 0.019", "unit": "mPa·s"},
      {"measurement": "viscosity", "setting": "333.15 K, x1 = 0.3002", "result": "3.14 ± 0.031", "unit": "mPa·s"},
      {"measurement": "viscosity", "setting": "333.15 K, x1 = 0.4993", "result": "6.76 ± 0.067", "unit": "mPa·s"},
      {"measurement": "viscosity", "setting": "333.15 K, x1 = 0.6309", "result": "10.74 ± 0.11", "unit": "mPa·s"},
      {"measurement": "viscosity", "setting": "333.15 K, x1 = 0.7571", "result": "16.09 ± 0.17", "unit": "mPa·s"},
      {"measurement": "viscosity", "setting": "333.15 K, x1 = 0.8894", "result": "24.67 ± 0.27", "unit": "mPa·s"},
      {"measurement": "viscosity", "setting": "333.15 K, x1 = 1", "result": "34.02 ± 0.39", "unit": "mPa·s"},
      {"measurement": "mass density", "setting": "333.15 K, x1 = 0.1006", "result": "863.47 ± 5", "unit": "kg/m3"},
      {"measurement": "mass density", "setting": "333.15 K, x1 = 0.199", "result": "924.86 ± 5", "unit": "kg/m3"},
      {"measurement": "mass density", "setting": "333.15 K, x1 = 0.3002", "result": "971.61 ± 5", "unit": "kg/m3"},
      {"measurement": "mass density", "setting": "333.15 K, x1 = 0.4993", "result": "1035.95 ± 5", "unit": "kg/m3"},
      {"measurement": "mass density", "setting": "333.15 K, x1 = 0.6309", "result": "1066.15 ± 5", "unit": "kg/m3"},
      {"measurement": "mass density", "setting": "333.15 K, x1 = 0.7571", "result": "1089.2 ± 5", "unit": "kg/m3"},
      {"measurement": "mass density", "setting": "333.15 K, x1 = 0.8894", "result": "1108.71 ± 5.1", "unit": "kg/m3"},
      {"measurement": "mass density", "setting": "333.15 K, x1 = 1", "result": "1122.37 ± 5.1", "unit": "kg/m3"}
    ]}
  ]
}
